Activity calls are given as the source filed them.
How the values were obtained:
[1] = target: T1, Serine/threonine-protein kinase LATS1 (Homo sapiens) (UniProt O95835); assay: Activation of LATS1 in human MDA-MB-231 cells assessed as induction of YAP degradation by measuring suppression of YAP protein expression at 0.5 uM pretreated with compound for 24 hrs followed by incubation with protein synthesis inhibitor, CHX up to 48 hrs by Western blot analysis; type: cell-based
T1 sequence (whole entry): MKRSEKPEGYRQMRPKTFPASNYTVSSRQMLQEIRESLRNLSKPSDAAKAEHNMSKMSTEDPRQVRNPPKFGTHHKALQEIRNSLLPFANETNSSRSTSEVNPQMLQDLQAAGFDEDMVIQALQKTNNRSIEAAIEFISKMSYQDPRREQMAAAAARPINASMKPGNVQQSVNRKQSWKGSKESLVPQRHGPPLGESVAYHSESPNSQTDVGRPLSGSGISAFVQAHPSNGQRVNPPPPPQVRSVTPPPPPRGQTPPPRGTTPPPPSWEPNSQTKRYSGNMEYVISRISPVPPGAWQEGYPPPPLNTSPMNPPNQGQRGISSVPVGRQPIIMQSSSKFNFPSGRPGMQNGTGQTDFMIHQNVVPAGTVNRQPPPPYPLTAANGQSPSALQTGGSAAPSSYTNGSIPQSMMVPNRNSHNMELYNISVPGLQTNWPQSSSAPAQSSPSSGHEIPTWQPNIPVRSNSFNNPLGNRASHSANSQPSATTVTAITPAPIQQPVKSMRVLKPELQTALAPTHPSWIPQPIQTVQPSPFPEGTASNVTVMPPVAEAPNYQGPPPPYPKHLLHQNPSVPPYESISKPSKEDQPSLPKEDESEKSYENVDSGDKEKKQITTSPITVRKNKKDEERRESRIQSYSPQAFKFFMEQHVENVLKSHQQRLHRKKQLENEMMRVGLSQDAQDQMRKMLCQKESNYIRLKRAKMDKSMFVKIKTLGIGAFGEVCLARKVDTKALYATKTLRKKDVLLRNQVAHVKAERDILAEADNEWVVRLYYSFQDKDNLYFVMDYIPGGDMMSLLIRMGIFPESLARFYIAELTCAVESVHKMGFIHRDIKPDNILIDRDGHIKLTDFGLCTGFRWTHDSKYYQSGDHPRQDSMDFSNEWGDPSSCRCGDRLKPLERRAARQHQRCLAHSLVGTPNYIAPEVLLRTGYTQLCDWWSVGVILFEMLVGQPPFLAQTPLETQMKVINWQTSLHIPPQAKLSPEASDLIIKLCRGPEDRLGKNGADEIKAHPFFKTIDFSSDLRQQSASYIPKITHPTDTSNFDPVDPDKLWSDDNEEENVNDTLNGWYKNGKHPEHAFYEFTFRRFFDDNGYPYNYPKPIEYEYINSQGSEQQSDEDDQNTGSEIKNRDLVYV

MDA-MB-231 [2] = assay: Cytotoxicity against human MDA-MB-231 cells assessed as reduction in cell viability measured after 72 hrs by MTT assay; type: functional, cell-based
MDA-MB-231 [3] = assay: Cytotoxicity against human MDA-MB-231 cells ectopically overexpressed with wild type FLAG-tagged YAP assessed as reduction in cell viability at 0.2 to 1.2 uM measured after 72 hrs by MTT assay; type: functional, cell-based
[4] = target: T1, Serine/threonine-protein kinase LATS1 (Homo sapiens); assay: Activation of LATS1 in human SUM159 cells assessed as increase in YAP phosphorylation at Ser397 at 0.25 to 1.5 uM measured after 12 to 24 hrs by immunoblotting analysis; type: cell-based
[5] = target: T1, Serine/threonine-protein kinase LATS1 (Homo sapiens); assay: Activation of LATS1 in human PC9 cells assessed as increase in YAP phosphorylation at Ser397 at 0.25 to 1.5 uM measured after 12 to 24 hrs by immunoblotting analysis; type: cell-based
[6] = target: T1, Serine/threonine-protein kinase LATS1 (Homo sapiens); assay: Activation of LATS1 in human SUM159 cells assessed as increase in YAP phosphorylation at Ser397 at 0.25 to 1.5 uM measured after 24 to 48 hrs by immunoblotting analysis; type: cell-based
[7] = target: T1, Serine/threonine-protein kinase LATS1 (Homo sapiens); assay: Activation of LATS1 in human MDA-MB-231 cells assessed as increase in YAP phosphorylation at Ser397 at 0.25 to 1.5 uM measured after 24 to 48 hrs by immunoblotting analysis; type: cell-based
[8] = target: T1, Serine/threonine-protein kinase LATS1 (Homo sapiens); assay: Activation of LATS1 in human PC9 cells assessed as increase in YAP phosphorylation at Ser397 at 0.25 to 1.5 uM measured after 24 to 48 hrs by immunoblotting analysis; type: cell-based
[9] = target: T1, Serine/threonine-protein kinase LATS1 (Homo sapiens); assay: Activation of LATS1 in human MDA-MB-231 cells assessed as increase in phosphorylation at Thr1079 residue measured after 24 hrs by Western blot analysis; type: cell-based
[10] = target: T1, Serine/threonine-protein kinase LATS1 (Homo sapiens); assay: Activation of LATS1 in human SUM159 cells assessed as increase in phosphorylation at Ser909 residue measured after 12 hrs by Western blot analysis; type: cell-based
[11] = target: T1, Serine/threonine-protein kinase LATS1 (Homo sapiens); assay: Activation of LATS1 in human SUM159 cells assessed as increase in phosphorylation at Thr1079 residue measured after 12 hrs by Western blot analysis; type: cell-based
PC-3 [12] = assay: Effect on MST1 expression in human PC3 cells at 0.25 to 1.5 uM measured after 24 hrs by Western blot analysis; type: functional, cell-based
PC-3 [13] = assay: Effect on MST2 expression in human PC3 cells at 0.25 to 1.5 uM measured after 24 hrs by Western blot analysis; type: functional, cell-based
MDA-MB-231 [14] = assay: Activation of MOB in human MDA-MB-231 cells assessed as phosphorylation at Thr35 residue at 0.25 to 1.25 uM measured after 24 hrs by Western blot analysis; type: cell-based
MDA-MB-231 [15] = assay: Antitumor activity against human MDA-MB-231 cells xenografted in athymic Nude-Foxn1nu BALB/c mouse assessed as tumor growth suppression at 200 mg/kg, po administered once daily via gavage for 40 days and measured twice a week during treatment period by caliper method relative to control; type: functional; settings: MDA-MB-231, po, 960 h
[16] = Acute toxicity in athymic Nude-Foxn1nu BALB/c mouse xenografted with human MDA-MB-231 cells assessed as effect on body weight at 200 mg/kg, po administered once daily via gavage for 40 days and measured twice a week during treatment period; type: organism-based; settings: in vivo, 960 h
[17] = Acute toxicity in athymic Nude-Foxn1nu BALB/c mouse xenografted with human MDA-MB-231 cells assessed as effect on serum total bilirubin level at 200 mg/kg, po administered once daily via gavage for 14 days; type: organism-based; settings: in vivo, 336 h
[18] = Acute toxicity in athymic Nude-Foxn1nu BALB/c mouse xenografted with human MDA-MB-231 cells assessed as effect on serum total cholesterol level level at 200 mg/kg, po administered once daily via gavage for 14 days; type: organism-based; settings: in vivo, 336 h
[19] = target: Epidermal growth factor receptor (Homo sapiens) (UniProt P00533); assay: Induction of EGFR degradation in human MDA-MB-231 cells assessed as suppression of EGFR expression at 0.1 to 0.8 uM by Western blot analysis; type: cell-based
PC-3 [20] = assay: Cytostatic activity against human PC3 cells assessed as cell viability at concentration of greater than IC50 measured up to 72 hrs by MTT assay; type: functional, cell-based

Chain of Epidermal growth factor receptor (Homo sapiens) (P00533 whole entry): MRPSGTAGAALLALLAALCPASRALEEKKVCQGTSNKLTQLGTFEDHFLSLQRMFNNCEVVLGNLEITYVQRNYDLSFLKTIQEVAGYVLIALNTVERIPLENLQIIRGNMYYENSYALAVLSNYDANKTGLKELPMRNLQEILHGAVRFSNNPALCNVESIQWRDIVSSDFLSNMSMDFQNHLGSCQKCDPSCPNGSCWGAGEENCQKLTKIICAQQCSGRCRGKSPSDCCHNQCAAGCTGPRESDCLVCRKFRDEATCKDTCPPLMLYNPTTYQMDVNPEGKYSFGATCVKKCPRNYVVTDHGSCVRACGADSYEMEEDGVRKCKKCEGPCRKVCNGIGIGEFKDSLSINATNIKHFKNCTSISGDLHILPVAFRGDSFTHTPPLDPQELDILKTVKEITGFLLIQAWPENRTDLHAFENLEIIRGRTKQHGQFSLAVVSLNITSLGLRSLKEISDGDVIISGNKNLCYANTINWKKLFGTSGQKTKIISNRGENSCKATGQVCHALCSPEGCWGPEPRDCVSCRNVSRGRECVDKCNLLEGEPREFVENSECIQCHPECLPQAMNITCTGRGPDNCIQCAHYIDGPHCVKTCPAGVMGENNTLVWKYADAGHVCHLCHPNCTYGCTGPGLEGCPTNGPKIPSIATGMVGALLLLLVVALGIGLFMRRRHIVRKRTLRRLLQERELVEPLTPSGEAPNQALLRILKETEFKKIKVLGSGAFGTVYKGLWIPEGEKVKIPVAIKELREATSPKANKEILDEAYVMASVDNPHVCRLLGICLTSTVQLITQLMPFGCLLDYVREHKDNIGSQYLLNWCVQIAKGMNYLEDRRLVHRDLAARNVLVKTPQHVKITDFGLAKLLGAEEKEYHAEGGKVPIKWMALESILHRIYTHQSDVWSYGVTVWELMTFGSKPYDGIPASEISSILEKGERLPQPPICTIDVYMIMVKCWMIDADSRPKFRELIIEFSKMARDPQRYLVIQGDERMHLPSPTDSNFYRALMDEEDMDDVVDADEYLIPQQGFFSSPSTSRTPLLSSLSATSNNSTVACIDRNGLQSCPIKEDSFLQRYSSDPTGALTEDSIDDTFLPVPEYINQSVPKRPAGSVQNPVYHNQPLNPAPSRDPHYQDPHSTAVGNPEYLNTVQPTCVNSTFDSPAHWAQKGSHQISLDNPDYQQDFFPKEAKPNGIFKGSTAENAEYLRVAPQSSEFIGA

CC(=O)Nc1ccc(NC(=O)Nc2cccc(-c3nc(-c4ccc(NC(=O)c5cccnc5)cc4Cl)no3)c2)cc1C(F)(F)F
65%: inhibition in vivo at 200 mg/kg (MDA-MB-231 [15])
0.4 to 0.8 µM: IC50 (MDA-MB-231 [2]; MDA-MB-231, 72 h)
inactive: Activity (MDA-MB-231 [3]) | Activity [6] | Activity [7] | Activity [8] | Activity (PC-3 [12]) | Activity (PC-3 [13]) | Activity [19]
active: Activity [1] | Activity (MDA-MB-231 [2]) Dose-dependent effect | Activity [4] | Activity [5] | Activity [9] Dose-dependent effect | Activity [10] Dose-dependent effect | Activity [11] Dose-dependent effect | Activity (MDA-MB-231 [14]) | Activity (PC-3 [20])
Non-Toxic: Activity [16] | Activity [17] | Activity [18]
